According to patent US20090221624A1, “4-AMINOQUINOLINE COMPOUNDS FOR TREATING VIRUS-RELATED CONDITIONS” (priority 2005, published 2009):

What was measured:
YFV (YF-hRuPac cells) = assay: microbe, parasite or virus in culture; format: cell-based, yellow fever virus; settings: for inhibition at 25 µM / EC50: Yellow fever virus; for inhibition at 25 µM: 24 h, read-out: YFV Inh; for EC50: read-out: YFV EC50
SINV (SR19-F-luc cells) = assay: SINV antiviral activity, SR19-F-luc cells, Firefly luciferase; format: cell-based; settings: Sindbis virus; for inhibition at 25 µM: primary screening, 25 μM final concentration, 24 hours, percent inhibition of viral replication, read-out: SINV Inh; for EC50: secondary screening, SR19-F-luc cells
RSV minigenome = assay: RSV minigenome-dependent β-galactosidase expression assay (RSV β-Gal); format: cell-based, respiratory syncytial virus; settings: for EC50 / inhibition at 25 µM: human respiratory syncytial virus; for EC50: Secondary Data, RSV, read-out: RSV EC50; for inhibition at 25 µM: primary screening, 25 μM final concentration, 24 hours, percent inhibition of viral replication, read-out: RSV Inh; for RSV TI: therapeutic index CC50/EC50, RSV
DNG (D2-hRuPac cells) = assay: DNG antiviral activity, D2-hRuPac cells, Renilla luciferase; format: cell-based, Dengue fever virus; settings: Dengue virus, secondary screening
WNV (WN-hRuPac cells) = assay: WNV antiviral activity, WN-hRuPac cells, Renilla luciferase; format: cell-based, West Nile virus; settings: for EC50 / inhibition at 25 µM: West Nile virus; for EC50: Secondary Data, WNV, read-out: WNV EC50; for inhibition at 25 µM: primary screening, 25 μM final concentration, 24 hours, percent inhibition of viral replication, read-out: WNV Inh; for WNV TI: therapeutic index CC50/EC50, WNV
EBOV minigenome = assay: microbe, parasite or virus in culture; format: cell-based, Ebola virus; settings: Zaire ebolavirus; for inhibition at 25 µM: 24 h, read-out: EBOV Inh; for EC50: read-out: EBOV EC50
[1] = test system: HCV replicon (Clone A cells, Huh7, subgenomic hepatits C virus RNA); assay: HCV Neo screening assay (HCV replicon, NPTII ELISA); format: cell-based, hepatitis C virus; settings: for EC50 / inhibition at 25 µM: Hepatitis C virus, Huh-7; for EC50: Secondary Data, HCV; for inhibition at 25 µM: primary screening, 25 μM final concentration, 24 hours, percent inhibition of viral replication, read-out: HCV Inh; for HCV TI: therapeutic index CC50/EC50, HCV

| SMILES | YFV TI (YFV (YF-hRuPac cells)) | inhibition at 25 µM (YFV (YF-hRuPac cells)) | EC50 (YFV (YF-hRuPac cells)) | inhibition at 25 µM (SINV (SR19-F-luc cells)) | EC50 (SINV (SR19-F-luc cells)) | EC50 (RSV minigenome) | inhibition at 25 µM (RSV minigenome) | RSV TI (RSV minigenome) | CC50 (in vitro; DNG CC50) | CC50 (in vitro; EBOV CC50) | CC50 (in vitro; RSV CC50) | CC50 (in vitro; SINV CC50) | CC50 (in vitro; WNV CC50) | CC50 (in vitro; YFV CC50) | EC50 (DNG (D2-hRuPac cells)) | EC50 (WNV (WN-hRuPac cells)) | inhibition at 25 µM (WNV (WN-hRuPac cells)) | WNV TI (WNV (WN-hRuPac cells)) | inhibition at 25 µM (EBOV minigenome) | EC50 (EBOV minigenome) | further results |
| --- | --- | --- | --- | --- | --- | --- | --- | --- | --- | --- | --- | --- | --- | --- | --- | --- | --- | --- | --- | --- | --- |
| CCOc1ccc2nc(C)cc(Nc3ccc(Br)cc3)c2c1 [Compound 41] | 7.97 | 96.5% | 3.61 µM | 97.2% | 2.96 µM | 2.04 µM | 99.4% | 14.11 | 28.8 µM | 28.8 µM | 28.8 µM | 28.8 µM | 28.8 µM | 28.8 µM | 7.91 µM | 7.4 µM | 100% | 3.89 | 95.2% | 75 µM | CC50 (in vitro; HCV CC50): 3.01 µM; EC50 [1]: 4 µM; inhibition at 25 µM [1]: 117%; HCV TI [1]: 0.75 |
| CCOc1ccc2nc(C)cc(Nc3ccc(OCc4ccccc4Cl)cc3)c2c1 [Compound 42] | 14.22 | 100% | 1.8 µM | 99.8% | 2.99 µM | 1.48 µM | 100% | 17.29 | 25.6 µM | 25.6 µM | 25.6 µM | 25.6 µM | 25.6 µM | 25.6 µM | 5.05 µM | 1.9 µM | 100% | 13.47 | 99.5% | 65.8 µM | CC50 (in vitro; HCV CC50): 1.21 µM; EC50 [1]: 1.3 µM; inhibition at 25 µM [1]: 96.5%; HCV TI [1]: 0.93 |
| COc1ccc2nc(C)cc(Nc3ccc(OCc4ccccc4Cl)cc3)c2c1 [Compound 43] | 18.48 | 100% | 1.41 µM | 99.7% | 4.08 µM | 2.24 µM | 100% | 11.63 | 26.1 µM | 26.1 µM | 26.1 µM | 26.1 µM | 26.1 µM | 26.1 µM | 1.65 µM | 5.45 µM | 99.9% | 4.78 | 98.7% | 75 µM | CC50 (in vitro; HCV CC50): 2.09 µM; EC50 [1]: 1.6 µM; inhibition at 25 µM [1]: 95.4%; HCV TI [1]: 1.31 |
| Cc1cc(C)c2nc(C)cc(Nc3ccc(OCc4ccccc4)cc3)c2c1 [Compound 44] | 12.12 | 100% | 2.26 µM | 95.8% | 3.57 µM | 3.88 µM | 98.9% | 7.06 | 27.4 µM | 27.4 µM | 27.4 µM | 27.4 µM | 27.4 µM | 27.4 µM | 3.39 µM | 4.29 µM | 99.9% | 6.39 | 99.6% | 75 µM | CC50 (in vitro; HCV CC50): 5.05 µM; EC50 [1]: 2.93 µM; inhibition at 25 µM [1]: 94.7%; HCV TI [1]: 1.72 |
| CCOc1ccc2nc(C)cc(Nc3ccc(C)c(Cl)c3)c2c1 [Compound 45] | 11.95 | 100% | 2.12 µM | 95.7% | 3.23 µM | 2.95 µM | 99.9% | 8.59 | 25.3 µM | 25.3 µM | 25.3 µM | 25.3 µM | 25.3 µM | 25.3 µM | 5.04 µM | 3.17 µM | 99% | 7.99 | 96.2% | 75 µM | CC50 (in vitro; HCV CC50): 4.66 µM; EC50 [1]: 4.4 µM; inhibition at 25 µM [1]: 119%; HCV TI [1]: 1.06 |
| CCOC(=O)c1cnc2c(C)cccc2c1NCc1ccco1 [Compound 46] | 13.87 | 97.7% | 3.54 µM | -16.9% | 49.7 µM | 1.31 µM | 94.7% | 37.48 | 49.1 µM | 49.1 µM | 49.1 µM | 49.1 µM | 49.1 µM | 49.1 µM | 10.2 µM | 2.96 µM | 103% | 16.59 | 90% | 7.92 µM | inhibition at 25 µM [1]: 15% |
| Cc1cc(Nc2ccc(C)c(C)c2)c2cc(Cl)ccc2n1 [Compound 47] | 2.86 | 77.7% | 19.6 µM | 61.4% | 7.23 µM | 3.96 µM | 96.4% | 14.14 | 56 µM | 56 µM | 56 µM | 56 µM | 56 µM | 56 µM | 39.4 µM | 8.66 µM | 73% | 6.47 | 49.5% | 75 µM | CC50 (in vitro; HCV CC50): 7.84 µM; EC50 [1]: 11 µM; inhibition at 25 µM [1]: 149%; HCV TI [1]: 0.71 |
| CC(=O)c1cccc(Nc2cc(C)nc3c(C)cc(C)cc23)c1 [Compound 48] | 1.61 | 62.1% | 15.9 µM | 70.3% | 2.47 µM | 8.32 µM | 78% | 3.08 | 25.6 µM | 25.6 µM | 25.6 µM | 25.6 µM | 25.6 µM | 25.6 µM | 10.5 µM | 21.3 µM | 58.5% | 1.2 | 29.4% | 26.4 µM | CC50 (in vitro; HCV CC50): 14.1 µM; EC50 [1]: 10 µM; inhibition at 25 µM [1]: 151%; HCV TI [1]: 1.41 |
| Cc1cc(C)c2nc(C)cc(Nc3ccc(O)cc3)c2c1 [Compound 49] | 3.57 | 66.5% | 11 µM | 72.5% | ≥ 75 µM | 4.39 µM | 90.2% | 8.94 | 39.3 µM | 39.3 µM | 39.3 µM | 39.3 µM | 39.3 µM | 39.3 µM | 13.2 µM | 5.58 µM | 66.4% | 7.04 | 69.9% | 6.88 µM | CC50 (in vitro; HCV CC50): 16.3 µM; EC50 [1]: 11.1 µM; inhibition at 25 µM [1]: 113%; HCV TI [1]: 1.47 |
| CCOC(=O)c1ccc2nc(C)cc(Nc3ccc(C)cc3C)c2c1 [Compound 51] | 3.62 | 41.8% | 15.5 µM | 51.9% | 13.7 µM | 3.72 µM | 75.5% | 15.07 | 56.1 µM | 56.1 µM | 56.1 µM | 56.1 µM | 56.1 µM | 56.1 µM | 61 µM | 16 µM | 49% | 3.5 | 33.7% | 52.6 µM | CC50 (in vitro; HCV CC50): 21.4 µM; EC50 [1]: 11.3 µM; inhibition at 25 µM [1]: 55.5%; HCV TI [1]: 1.89 |
